Assays:
Assay type in all cases: in vivo
Helmintosporium teres = assay: Fungicidal activity against Helmintosporium teres on barley; settings: barley cv. Gemini, scale 0 (plant completely infected) to 100 (healthy plant)
Protocol: Determination of the Fungicidal Activity of the Compounds Having Formula (I) Against Helmintosporium Teres on Barley
Leaves of barley plants (cultivar Gemini), grown in pots in a conditioned environment (20±1° C., 70% of R.H.), were treated by spraying both sides of the leaves with the compounds under examination, dispersed in a […] solution at 20% by volume of acetone.
After remaining 5 days in a conditioned environment, the plants were sprayed on both sides of the leaves with an aqueous suspension of conidia of Helmintosporium teres (50,000 conidia per cm^3 (adding Tween 20-1 drop/100 ml).
The plants were then kept in a controlled environment during the incubation period of the fungus (1 day wet room for infection, 3 days in a cell with R.H. 70% and […] for the incubation period, 3 days for wet room evasion, 12 days biological cycle).
At the end of this period (12 days), the fungicidal activity was evaluated according to an evaluation percentage scale from 0 (plant completely infected) to 100 (healthy plant).

Puccinia recondita = assay: Preventive fungicidal activity (5 days) against Puccinia recondita on wheat; settings: for P5 activity NT (parts developed during the test) / P5 activity T (parts treated directly with the products): wheat Salgemma, inoculation 5 days after spraying, reduction of diseased leaf area vs non-treated
Protocol: Determination of the Preventive Fungicidal Activity (5 Days) Against Puccinia recondita on Wheat
Leaves of wheat plants of the Salgemma variety, grown in pots in a conditioned environment at 20° C. and 70% of Relative Humidity (RH) were treated by spraying both sides of the leaves with the compound under examination (see Table 4 hereunder) dispersed in a hydroacetone solution at 20% by volume of acetone.
After remaining 5 days in a conditioned environment, the plants were sprayed on both sides of the leaves with an aqueous suspension of conidia of Puccinia recondita (2 mg of inoculum per 1 ml of solution for infection).
After spraying, the plants were kept in a humidity-saturated environment at a temperature ranging from 18 to 24° C. for the incubation period of the fungus (1 day).
At the end of this period, the plants were put in a greenhouse with a relative humidity (RH) of 70% and at a temperature of 18-24° C. for 14 days.
At the end of this period, the external symptoms of the pathogen appeared and it was therefore possible to proceed with the visual evaluation of the intensity of the infection, both on the parts treated directly with the products (T) and on the parts developed during the implementation of the test (NT).
The fungicidal activity is expressed as a percentage of the reduction, with respect to non-treated seedlings (comparison), in the area of the leaf affected by the disease (100=full effectiveness; 0=zero effectiveness).

Plasmopara viticola = assay: Preventive activity (7 days) against Plasmopara viticola on vines; settings: vine Merlot, inoculation 7 days after treatment, reduction of diseased leaf area vs non-treated
Protocol: Determination of the Preventive Activity (7 Days) of the Compounds Having Formula (I) Against Plasmopara viticola on Vines
Leaves of vine plants of the Merlot variety, grown in pots, in a conditioned environment, (20±1° C., 70% of R.H.) were treated by spraying both sides with the compound under examination.
7 days after the treatment, the plants were inoculated with an aqueous suspension of spores of Plasmopara viticola (200,000 spores/cc) by spraying both sides of the leaves with a compressed air gun.
After remaining 24 hours in a humidity-saturated environment, at 21° C. the plants were transferred for an incubation period (7 days) in a conditioned environment at 70% of R H. and at 24° C.
At the end of this period, the external symptoms of the pathogen appeared and it was therefore possible to proceed with the evaluation of the intensity of the infection.
The fungicidal activity was expressed as the reduction percentage, with respect to non-treated seedlings, in the area of the leaf affected by the disease (100=full effectiveness; 0=zero effectiveness).

| Compound | P7 activity (Helmintosporium teres; 125 ppm) [%] | P7 activity (Helmintosporium teres; 250 ppm) [%] | P5 activity NT (parts developed during the test) (Puccinia recondita; 125 ppm) [%] | P5 activity T (parts treated directly with the products) (Puccinia recondita; 125 ppm) [%] | P5 activity NT (parts developed during the test) (Puccinia recondita; 250 ppm) [%] | P5 activity T (parts treated directly with the products) (Puccinia recondita; 250 ppm) [%] | fungicidal activity (full activity) (Puccinia recondita; dosage of 250 ppm, T/NT not specified) [%] | P7 activity (Plasmopara viticola; 30 ppm) [%] | P7 activity (Plasmopara viticola; 125 ppm) [%] |
| --- | --- | --- | --- | --- | --- | --- | --- | --- | --- |
| CC(C)C(=O)OCOc1c(NC=O)cccc1C(=O)NC1CC(C)(C)CC(C)(C)C1 [Compound 1, 3-formylamino-2-[(2-methyl-propanoyl-oxy)methoxy]-N-(3,3,5,5-tetramethylcyclohexyl)benzamide] | 75 | 80 | 60 | 70 | 65 | 75 | 100 | 100 | 100 |
| CC(C)C(=O)OCOc1c(C(=O)NC2CC(C)(C)CC(C)(C)C2)cccc1N(C=O)COC(=O)C(C)C [Compound 4, 3-(N′-formyl-N′-[(2-methylpropanoyl-oxy)methyl]amino)-2-[(2-methylpropanoyloxy)methoxy]-N-(3,3,5,5-tetramethylcyclohexyl)-benzamide] | – | – | 65 | 70 | 70 | 80 | – | 100 | 100 |
| CC1(C)CC(NC(=O)c2cccc(NC=O)c2O)CC(C)(C)C1 [CR1, 3-formylamino-2-hydroxy-N-(3,3,5,5-tetramethylcyclohexyl)benzamide, reference compound] | 5 | 15 | 35 | 50 | 50 | 65 | – | 50 | 65 |
